Test results published in article PMC11189555, “Aryl amino acetamides prevent Plasmodium falciparum ring development via targeting the lipid-transfer protein PfSTART1” (Nature Communications, 2024).

Columns and labels:
in vitro = settings: human
[1] = tested on: PopD-D7 M-833 resistant clone (PfSTART1 N309K); test: Growth inhibition assay (72 h, LDH activity); format: cell-based, Plasmodium falciparum; settings: for (av-uRBC) / (DMSO-uRBC) x100: PopD-D7
Experimental: The drug was then removed, and parasites were allowed to recover. Another cycle of drug treatment (3 μM M-833) was then resumed. The resistant lines were cloned out by limiting dilution (diluting the culture into a 96-well plate to achieve an average of ~0.3 parasites per well), prior to growth inhibition assays and genomic DNA (gDNA) extraction (DNeasy Blood and Tissue kit (Qiagen)[18].
Parasite growth assays with inhibitory compounds were performed as per[11] and are fully described in the Supplementary Information. […]
Growth inhibition assays. Synchronised ring-stage parasites (0.3-0.6% parasitemia, 2% haematocrit) were grown for 72 h in a serial-dilution of the compound under […]
and compound 4. Note that M-833 was first purchased from MolPort (MolPort -002-267-916) then made in-house at WEHI: the differences observed in EC50s across experiments are attributed to the different batches of M -833. For some experiments, 0, 0.25 or 2.5 mM of glucosamine (GlcN) was also added. Experiments were set up in technical duplicates or triplicates. Following a freeze -thaw cycle, lactate dehydrogenase (LDH) activity was assessed as an indicator of parasite growt h 5. 30 μL of parasite culture was incubated for 30 min in the dark with 75 μL Malstat mixture (0.1 M Tris pH 9.0, 20 g/L lactic acid, pH 7.5, 0.2% Triton-X100, 0.5 g/L acetylpyridine adenine dinucleotide (APAD, Sigma), 200 μg/mL nitroblue tetrazolium (NBT; Sigma), 1 μg/mL phenozine ethosulfate (PES; Sigma)). Absorbance was then measured at 650 nm, transformed using the formula below, plotted against the logarithm of the concentrations, and a non-linear regression (log(inhibitor) vs. response, variable slope) was calculated using GraphPad Prism to assess the half-inhibitory […]
Growth inhibition % = (1 − average(sample)− average(uRBC)) ∗ 100 […]
The DMSO samples were also used to assess growth of parasite in the presence of 0.25 and 2.5 mM GlcN (normalised by DMSO in 0 mM GlcN). […]

For `O=C(CNc1ccc(Cl)c(S(=O)(=O)N2CCOCC2)c1)Nc1ccc(F)c(Cl)c1` [compound 2, reference compound], the CC50 (in vitro) was greater than 40 µM, the EC50 ([1]; Plasmodium falciparum, Supplementary Table 1, PopD-D7 (N309K), 72 h, read-out: EC50) was greater than 20 µM and the “resistance of the line compared with 3D7” value ([1]; PopD-D7 (N309K), Fig 4B) was “highly resistant”. For the same compound, the “(av-uRBC) / (DMSO-uRBC) x100” value ([1]; conc. 3.04832 nM, Biological replicate 1 (2021-10-25)) was 108.297, the “(av-uRBC) / (DMSO-uRBC) x100” value ([1]; conc. 3.04832 nM, Biological replicate 2 (2021-11-03)) was 110.746 and the “(av-uRBC) / (DMSO-uRBC) x100” value ([1]; conc. 3.04832 nM, Biological replicate 3 (2021-11-11)) was 101.173. The “(av-uRBC) / (DMSO-uRBC) x100” value ([1]; conc. 9.14495 nM, Biological replicate 1 (2021-10-25)) was 111.853, the “(av-uRBC) / (DMSO-uRBC) x100” value ([1]; conc. 9.14495 nM, Biological replicate 2 (2021-11-03)) was 111.153 and the “(av-uRBC) / (DMSO-uRBC) x100” value ([1]; conc. 9.14495 nM, Biological replicate 3 (2021-11-11)) was 114.836. The “(av-uRBC) / (DMSO-uRBC) x100” value ([1]; conc. 27.4348 nM, Biological replicate 1 (2021-10-25)) was 111.176, the “(av-uRBC) / (DMSO-uRBC) x100” value ([1]; conc. 27.4348 nM, Biological replicate 2 (2021-11-03)) was 111.76 and the “(av-uRBC) / (DMSO-uRBC) x100” value ([1]; conc. 27.4348 nM, Biological replicate 3 (2021-11-11)) was 128.575. For the same compound, the “(av-uRBC) / (DMSO-uRBC) x100” value ([1]; conc. 82.3045 nM, Biological replicate 1 (2021-10-25)) was 109.097, the “(av-uRBC) / (DMSO-uRBC) x100” value ([1]; conc. 82.3045 nM, Biological replicate 2 (2021-11-03)) was 114.254 and the “(av-uRBC) / (DMSO-uRBC) x100” value ([1]; conc. 82.3045 nM, Biological replicate 3 (2021-11-11)) was 124.242. For the same compound, the “(av-uRBC) / (DMSO-uRBC) x100” value ([1]; conc. 246.914 nM, Biological replicate 1 (2021-10-25)) was 110.536, the “(av-uRBC) / (DMSO-uRBC) x100” value ([1]; conc. 246.914 nM, Biological replicate 2 (2021-11-03)) was 113.933 and the “(av-uRBC) / (DMSO-uRBC) x100” value ([1]; conc. 246.914 nM, Biological replicate 3 (2021-11-11)) was 129.518. For the same compound, the “(av-uRBC) / (DMSO-uRBC) x100” value ([1]; conc. 740.741 nM, Biological replicate 1 (2021-10-25)) was 106.002, the “(av-uRBC) / (DMSO-uRBC) x100” value ([1]; conc. 740.741 nM, Biological replicate 2 (2021-11-03)) was 112.781 and the “(av-uRBC) / (DMSO-uRBC) x100” value ([1]; conc. 740.741 nM, Biological replicate 3 (2021-11-11)) was 117.002. For the same compound, the “(av-uRBC) / (DMSO-uRBC) x100” value ([1]; conc. 2222.22 nM, Biological replicate 1 (2021-10-25)) was 103.716, the “(av-uRBC) / (DMSO-uRBC) x100” value ([1]; conc. 2222.22 nM, Biological replicate 2 (2021-11-03)) was 111.361 and the “(av-uRBC) / (DMSO-uRBC) x100” value ([1]; conc. 2222.22 nM, Biological replicate 3 (2021-11-11)) was 123.604. For the same compound, the “(av-uRBC) / (DMSO-uRBC) x100” value ([1]; conc. 6666.67 nM, Biological replicate 1 (2021-10-25)) was 102.822, the “(av-uRBC) / (DMSO-uRBC) x100” value ([1]; conc. 6666.67 nM, Biological replicate 2 (2021-11-03)) was 107.742 and the “(av-uRBC) / (DMSO-uRBC) x100” value ([1]; conc. 6666.67 nM, Biological replicate 3 (2021-11-11)) was 113.943. For the same compound, the “(av-uRBC) / (DMSO-uRBC) x100” value ([1]; conc. 20000 nM, Biological replicate 1 (2021-10-25)) was 68.9276, the “(av-uRBC) / (DMSO-uRBC) x100” value ([1]; conc. 20000 nM, Biological replicate 2 (2021-11-03)) was 85.5559 and the “(av-uRBC) / (DMSO-uRBC) x100” value ([1]; conc. 20000 nM, Biological replicate 3 (2021-11-11)) was 59.2149. The “Fold change compared to 3D7” value ([1]; Supplementary Table 1, EC50 on PopD-D7 vs 3D7) was greater than 117 fold.
